Laboratory results as given in patent US9498483B2, “2,3,5-trisubstituted thiophene compounds and uses thereof” (priority 2010, dated 2016).

Columns and labels:
[1] = system: HCV replicon I389luc-ubi-neo/NS3-3′/ET in ET (Huh-lucubineo-ET) cells; experiment: Replicon assay (Biological Example 2), luciferase readout; format: cell-based; conditions: Hepatitis C virus
Procedure, shortened: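 EC50 values come from Hill fits of % inhibition of replicon-driven firefly luciferase, relative to no-compound wells. Compounds were serially diluted (10 points, 3-fold, 0.1 nM–50 μM final, 0.5% DMSO) onto ET replicon cells and read after 48 h.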

[2] = molecular target: T1, HCV polymerase (Hepatitis C virus genotype 1b, UniProt Q9WMX2); experiment: Polymerase assay of Biological Example 1 (IC50 values of Table 3); format: biochemical; conditions: IC50 values of Table 3, polymerase assay of Biological Example 1; read-out: NS5B-enzyme3
T1 construct: (His)6 (C); made in house; host or cells: XL-1 cells (E. coli, by own knowledge)

[3] = ET cells, luciferase activity 48 hours after compound

CC(C)(C)C#Cc1cc(N2C(=O)C(CCCO)CC[C@H]2C2CCCCC2)c(C(=O)O)s1 (stereo partly drawn) [Compound 339, 3-[(S)-6-Cyclohexyl-3-(3-hydroxy-propyl)-2-oxo-piperidin-1-yl]-5-(3,3-dimethyl-but-1-ynyl)-thiophene-2-carboxylic acid]
IC50 [1, 3]: ≤ 100 nM
IC50 [2]: 8 nM

Cc1ccc(-c2cc(N3C(=O)CN(S(=O)(=O)c4ccc(N5CCOCC5)nc4)C[C@H]3C3CCCCC3)c(C(=O)O)s2)cc1 [Compound 187, 3-[(R)-2-Cyclohexyl-4-(6-morpholin-4-yl-pyridine-3-sulfonyl)-6-oxo-piperazin-1-yl]-5-p-tolyl-thiophene-2-carboxylic acid]
IC50 [1, 3]: ≤ 100 nM
IC50 [2]: 1 nM

O=C(O)c1sc(-c2ccccc2)cc1N1C(=O)CN(Cc2ccccc2)C[C@H]1C1CCCCC1 [Compound 17, 3-((R)-4-Benzyl-2-cyclohexyl-6-oxo-piperazin-1-yl)-5-phenyl-thiophene-2-carboxylic acid]
IC50 ([1]; between 100 nM and 5.0 uM): 100 to 5000 nM
IC50 [2]: 24 nM

CNC(=O)c1ccc(S(=O)(=O)N2CC(=O)N(c3cc(C#CC(C)(C)C)sc3C(=O)O)[C@H](C3CCCCC3)C2)cc1 [Compound 253, 3-[(R)-2-Cyclohexyl-4-(4-methylcarbamoyl-benzenesulfonyl)-6-oxo-piperazin-1-yl]-5-(3,3-dimethyl-but-1-ynyl)-thiophene-2-carboxylic acid]
IC50 [1, 3]: ≤ 100 nM
IC50 [2]: 2 nM

CC(C)CS(=O)(=O)N1CC(=O)N(c2cc(-c3ccccc3)sc2C(=O)O)C(C2CCCCC2)C1 (stereo not drawn) [Compound 38, 3-[2-Cyclohexyl-4-(2-methyl-propane-1-sulfonyl)-6-oxo-piperazin-1-yl]-5-phenyl-thiophene-2-carboxylic acid]
IC50 ([1]; between 100 nM and 5.0 uM): 100 to 5000 nM
IC50 [2]: 65 nM

CC(C)(C)N1CCN(c2ccc(S(=O)(=O)N3CC(=O)N(c4cc(-c5ccccc5)sc4C(=O)O)[C@H](C4CCCCC4)C3)cn2)CC1 [Compound 152, 3-{(R)-4-[6-(4-tert-Butyl-piperazin-1-yl)-pyridine-3-sulfonyl]-2-cyclohexyl-6-oxo-piperazin-1-yl}-5-phenyl-thiophene-2-carboxylic acid]
IC50 [1, 3]: ≤ 100 nM
IC50 [2]: 3 nM

CC(C)(C)C#Cc1cc(N2C(=O)[C@H](CCCO)OC[C@H]2C2CCCCC2)c(C(=O)O)s1 (single isomer, unassigned) [Compound 2]
IC50 [1, 3]: ≤ 100 nM
IC50 [2]: 35 nM

CC(C)(C)C#Cc1cc(N2C(=O)[C@@](C)(CC(O)CO)OC[C@H]2C2CCCCC2)c(C(=O)O)s1 (stereo partly drawn) [Compound 330, 3-[(2R,5R)-5-Cyclohexyl-2-(2,3-dihydroxy-propyl)-2-methyl-3-oxo-morpholin-4-yl]-5-(3,3-dimethyl-but-1-ynyl)-thiophene-2-carboxylic acid]
IC50 [1, 3]: ≤ 100 nM
IC50 [2]: 3 nM

Cc1ccc(-c2cc(N3C(=O)C(C)(O)CCC3C3CCCCC3)c(C(=O)O)s2)cc1 (stereo not drawn) [Compound 5, 3-(6-Cyclohexyl-3-hydroxy-3-methyl-2-oxo-piperidin-1-yl)-5-p-tolyl-thiophene-2-carboxylic acid]
IC50 [1, 3]: ≤ 100 nM
IC50 [2]: 52 nM

O=C(O)c1sc(-c2ccc(F)cc2)cc1N1C(=O)CN(S(=O)(=O)c2ccc(N3CC4CCC(C3)O4)nc2)C[C@H]1C1CCCCC1 [Compound 196, 3-{(R)-2-Cyclohexyl-4-[6-(8-oxa-3-aza-bicyclo[3.2.1]oct-3-yl)-pyridine-3-sulfonyl]-6-oxo-piperazin-1-yl}-5-(4-fluoro-phenyl)-thiophene-2-carboxylic acid]
IC50 [1, 3]: ≤ 100 nM
IC50 [2]: 1 nM

CC(C)(C)C#Cc1cc(N2C(=O)CN(S(=O)(=O)c3cn[nH]c3)C[C@H]2C2CCCCC2)c(C(=O)O)s1 [Compound 241, 3-[(R)-2-Cyclohexyl-6-oxo-4-(1H-pyrazole-4-sulfonyl)-piperazin-1-yl]-5-(3,3-dimethyl-but-1-ynyl)-thiophene-2-carboxylic acid]
IC50 [1, 3]: ≤ 100 nM
IC50 [2]: 1 nM

CC1(NC(=O)OC(C)(C)C)CCN(c2ccc(S(=O)(=O)N3CC(=O)N(c4cc(-c5ccccc5)sc4C(=O)O)[C@H](C4CCCCC4)C3)cn2)CC1 [Compound 153, 3-[(R)-4-(4-tert-Butoxycarbonylamino-4-methyl-3,4,5,6-tetrahydro-2H-[1,2′]bipyridinyl-5′-sulfonyl)-2-cyclohexyl-6-oxo-piperazin-1-yl]-5-phenyl-thiophene-2-carboxylic acid]
IC50 ([1]; between 100 nM and 5.0 uM): 100 to 5000 nM
IC50 [2]: 4 nM

O=C(O)c1sc(-c2ccccc2)cc1N1C(=O)CN(S(=O)(=O)c2cccc(OC(F)(F)F)c2)CC1C1CCCCC1 (stereo not drawn) [Compound 59]
IC50 ([1]; between 100 nM and 5.0 uM): 100 to 5000 nM
IC50 [2]: 39 nM

CN1CCOc2cc(S(=O)(=O)N3CC(=O)N(c4cc(-c5ccccc5)sc4C(=O)O)C(C4CCCCC4)C3)cnc21 (stereo not drawn) [Compound 99, 3-[2-Cyclohexyl-4-(4-methyl-3,4-dihydro-2H-pyrido[3,2-b][1,4]oxazine-7-sulfonyl)-6-oxo-piperazin-1-yl]-5-phenyl-thiophene-2-carboxylic acid]
IC50 [1, 3]: ≤ 100 nM
IC50 [2]: 2 nM

O=C(O)c1sc(-c2ccccc2)cc1N1C(=O)CN(S(=O)(=O)c2ccc(-c3ccn[nH]3)nc2)C[C@H]1C1CCCCC1 [Compound 209, 3-{(R)-2-Cyclohexyl-6-oxo-4-[6-(2H-pyrazol-3-yl)-pyridine-3-sulfonyl]-piperazin-1-yl}-5-phenyl-thiophene-2-carboxylic acid]
IC50 ([1]; between 100 nM and 5.0 uM): 100 to 5000 nM
IC50 [2]: 1 nM

CC(C)(C)C#Cc1cc(N2C(=O)CN(S(=O)(=O)c3cccc(F)c3)C[C@H]2C2CCCCC2)c(C(=O)O)s1 [Compound 239, 3-[(R)-2-Cyclohexyl-4-(3-fluoro-benzenesulfonyl)-6-oxo-piperazin-1-yl]-5-(3,3-dimethyl-but-1-ynyl)-thiophene-2-carboxylic acid]
IC50 [1, 3]: ≤ 100 nM
IC50 [2]: 2 nM

N#Cc1ccccc1-c1ccc(S(=O)(=O)N2CC(=O)N(c3cc(-c4ccccc4)sc3C(=O)O)[C@H](C3CCCCC3)C2)cn1 [Compound 213, 3-{(R)-4-[6-(2-Cyano-phenyl)-pyridine-3-sulfonyl]-2-cyclohexyl-6-oxo-piperazin-1-yl}-5-phenyl-thiophene-2-carboxylic acid]
IC50 [1, 3]: ≤ 100 nM
IC50 [2]: 1 nM

O=C(O)c1sc(-c2ccccc2)cc1N1C(=O)CN(S(=O)(=O)c2cccc(-c3ccccc3)c2)CC1C1CCCCC1 (stereo not drawn) [Compound 65, 3-[4-(Biphenyl-3-sulfonyl)-2-cyclohexyl-6-oxo-piperazin-1-yl]-5-phenyl-thiophene-2-carboxylic acid]
IC50 ([1]; between 100 nM and 5.0 uM): 100 to 5000 nM
IC50 [2]: 45 nM

O=C(O)c1sc(-c2ccccc2)cc1N1C(=O)CN(S(=O)(=O)CCc2ccccc2)CC1C1CCCCC1 (stereo not drawn) [Compound 39, 3-[2-Cyclohexyl-6-oxo-4-(2-phenyl-ethanesulfonyl)-piperazin-1-yl]-5-phenyl-thiophene-2-carboxylic acid]
IC50 ([1]; between 100 nM and 5.0 uM): 100 to 5000 nM
IC50 [2]: 51 nM

CC(C)(C)C#Cc1cc(N2C(=O)CNCC2C2CCCCC2)c(C(=O)O)s1 (stereo not drawn) [Compound 175, 3-(2-Cyclohexyl-6-oxo-piperazin-1-yl)-5-(3,3-dimethyl-but-1-ynyl)-thiophene-2-carboxylic acid]
IC50 [1, 3]: ≥ 5000 nM
IC50 [2]: > 10000 nM

O=C(O)c1sc(-c2ccccc2)cc1N1C(=O)CN(S(=O)(=O)c2cccc(Cl)c2Cl)CC1C1CCCCC1 (stereo not drawn) [Compound 111, 3-[2-Cyclohexyl-4-(2,3-dichloro-benzenesulfonyl)-6-oxo-piperazin-1-yl]-5-phenyl-thiophene-2-carboxylic acid]
IC50 [1, 3]: ≥ 5000 nM
IC50 [2]: 243 nM

O=C(O)c1ccc(-c2ccc(S(=O)(=O)N3CC(=O)N(c4cc(-c5ccccc5)sc4C(=O)O)[C@H](C4CCCCC4)C3)cn2)s1 [Compound 210, 3-{(R)-4-[6-(5-Carboxy-thiophen-2-yl)-pyridine-3-sulfonyl]-2-cyclohexyl-6-oxo-piperazin-1-yl}-5-phenyl-thiophene-2-carboxylic acid]
IC50 [1, 3]: ≥ 5000 nM
IC50 [2]: 3 nM

C[C@@H]1CCCN1c1ncc(S(=O)(=O)N2CC(=O)N(c3cc(-c4ccccc4)sc3C(=O)O)[C@H](C3CCCCC3)C2)cc1Cl [Compound 170, 3-{(R)-4-[5-Chloro-6-((R)-2-methyl-pyrrolidin-1-yl)-pyridine-3-sulfonyl]-2-cyclohexyl-6-oxo-piperazin-1-yl}-5-phenyl-thiophene-2-carboxylic acid]
IC50 [1, 3]: ≤ 100 nM
IC50 [2]: 4 nM

COc1ccc(S(=O)(=O)N2CC(=O)N(c3cc(C#CC(C)(C)C)sc3C(=O)O)[C@H](C3CCCCC3)C2)cc1OC [Compound 277, 3-[(R)-2-Cyclohexyl-4-(3,4-dimethoxy-benzenesulfonyl)-6-oxo-piperazin-1-yl]-5-(3,3-dimethyl-but-1-ynyl)-thiophene-2-carboxylic acid]
IC50 [1, 3]: ≤ 100 nM
IC50 [2]: 2 nM

CC(C)(C)C#Cc1cc(N2C(=O)C(CCO)(CCO)OC[C@H]2C2CCCCC2)c(C(=O)O)s1 [Compound 333, 3-[(R)-5-Cyclohexyl-2,2-bis-(2-hydroxy-ethyl)-3-oxo-morpholin-4-yl]-5-(3,3-dimethyl-but-1-ynyl)-thiophene-2-carboxylic acid]
IC50 ([1]; between 100 nM and 5.0 uM): 100 to 5000 nM
IC50 [2]: 10 nM

CC(C)(C)C#Cc1cc(N2C(=O)CN(S(=O)(=O)C3CC3)C[C@H]2C2CCCCC2)c(C(=O)O)s1 [Compound 245, 3-((R)-2-Cyclohexyl-4-cyclopropanesulfonyl-6-oxo-piperazin-1-yl)-5-(3,3-dimethyl-but-1-ynyl)-thiophene-2-carboxylic acid]
IC50 ([1]; between 100 nM and 5.0 uM): 100 to 5000 nM
IC50 [2]: 5 nM

CC(C)c1ccc(S(=O)(=O)N2CC(=O)N(c3cc(-c4ccccc4)sc3C(=O)O)C(C3CCCCC3)C2)cc1 (stereo not drawn) [Compound 100, 3-[2-Cyclohexyl-4-(4-isopropyl-benzenesulfonyl)-6-oxo-piperazin-1-yl]-5-phenyl-thiophene-2-carboxylic acid]
IC50 ([1]; between 100 nM and 5.0 uM): 100 to 5000 nM
IC50 [2]: 4 nM
